In PubChem BioAssay (NCI):
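Briefly, cells in 96-well plates were exposed to five compound concentrations for 48 h, and endpoints were estimated by linear interpolation. TGI: total growth inhibition.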

How the values were obtained:
Assay in all cases: DTP human tumour cell line panel, 48 h
T-47D breast = test system: T-47D breast
HCT-116 colon = test system: HCT-116 colon
NCI/ADR-RES ovarian = test system: NCI/ADR-RES ovarian
NCI-H522 lung = test system: NCI-H522 lung
SNB-19 CNS = test system: SNB-19 CNS
M14 melanoma = test system: M14 melanoma
UACC-62 melanoma = test system: UACC-62 melanoma
RXF 393 renal = test system: RXF 393 renal
786-0 renal = test system: 786-0 renal
HCC-2998 colon = test system: HCC-2998 colon
DU-145 prostate = test system: DU-145 prostate
IGROV1 ovarian = test system: IGROV1 ovarian
KM12 colon = test system: KM12 colon
ACHN renal = test system: ACHN renal
U251 CNS = test system: U251 CNS
HOP-92 NSCLC = test system: HOP-92 NSCLC
A549 NSCLC = test system: A549 NSCLC
MDA-N = test system: MDA-N
MOLT-4 leukemia = test system: MOLT-4 leukemia
LOX IMVI melanoma = test system: LOX IMVI melanoma
OVCAR-8 ovarian = test system: OVCAR-8 ovarian
RPMI-8226 leukemia = test system: RPMI-8226 leukemia
BT-549 breast = test system: BT-549 breast
K-562 leukemia = test system: K-562 leukemia
TK-10 renal = test system: TK-10 renal
MCF7 breast = test system: MCF7 breast
A498 renal = test system: A498 renal
SK-MEL-5 melanoma = test system: SK-MEL-5 melanoma
NCI-H226 lung = test system: NCI-H226 lung
SF-268 CNS = test system: SF-268 CNS
SNB-75 CNS = test system: SNB-75 CNS
SK-MEL-28 melanoma = test system: SK-MEL-28 melanoma
OVCAR-5 ovarian = test system: OVCAR-5 ovarian
EKVX NSCLC = test system: EKVX NSCLC
NCI-H23 lung = test system: NCI-H23 lung
MDA-MB-231 breast = test system: MDA-MB-231 breast
SR leukemia = test system: SR leukemia
SW-620 colon = test system: SW-620 colon
HCT-15 colon = test system: HCT-15 colon
HS 578T breast = test system: HS 578T breast
CAKI-1 renal = test system: CAKI-1 renal
HT29 colon = test system: HT29 colon
SN12C renal = test system: SN12C renal
CCRF-CEM leukemia = test system: CCRF-CEM leukemia
SK-MEL-2 melanoma = test system: SK-MEL-2 melanoma
PC-3 prostate = test system: PC-3 prostate
HL-60(TB) leukemia = test system: HL-60(TB) leukemia
OVCAR-4 ovarian = test system: OVCAR-4 ovarian
SF-539 CNS = test system: SF-539 CNS
NCI-H460 lung = test system: NCI-H460 lung
MALME-3M melanoma = test system: MALME-3M melanoma
UACC-257 melanoma = test system: UACC-257 melanoma
MDA-MB-435 = test system: MDA-MB-435
UO-31 renal = test system: UO-31 renal
COLO 205 colon = test system: COLO 205 colon

`COc1cc(/C=C/C2=NN(c3cccc(S(=O)(=O)O)c3)C3(C2)SCC(=O)N3c2nc3ccccc3s2)cc(OC)c1OC` (stereo not given) gave a TGI (T-47D breast) of 47.8 µM, a TGI (HCT-116 colon) of over 100 µM and a TGI (NCI/ADR-RES ovarian) of over 100 µM. The TGI (NCI-H522 lung) was 38.4 µM, the TGI (SNB-19 CNS) was over 100 µM and the TGI (M14 melanoma) was over 100 µM. It also gave a TGI (UACC-62 melanoma) of over 100 µM, a TGI (RXF 393 renal) of over 100 µM and a TGI (786-0 renal) of 37.5 µM. It also gave a TGI (HCC-2998 colon) of over 100 µM, a TGI (DU-145 prostate) of over 100 µM and a TGI (IGROV1 ovarian) of over 100 µM. It also gave a TGI (KM12 colon) of over 100 µM, a TGI (ACHN renal) of over 100 µM and a TGI (U251 CNS) of over 100 µM. The TGI (HOP-92 NSCLC) was over 100 µM, the TGI (A549 NSCLC) was over 100 µM and the TGI (MDA-N) was over 100 µM. The TGI (MOLT-4 leukemia) was over 100 µM, the TGI (LOX IMVI melanoma) was 40.7 µM and the TGI (OVCAR-8 ovarian) was over 100 µM. For the same molecule, the TGI (RPMI-8226 leukemia) was 48.9 µM, the TGI (BT-549 breast) was over 100 µM and the TGI (K-562 leukemia) was over 100 µM. The TGI (TK-10 renal) was 93.3 µM, the TGI (MCF7 breast) was over 100 µM and the TGI (A498 renal) was over 100 µM. The TGI (SK-MEL-5 melanoma) was over 100 µM, the TGI (NCI-H226 lung) was over 100 µM and the TGI (SF-268 CNS) was over 100 µM. The TGI (SNB-75 CNS) was over 100 µM, the TGI (SK-MEL-28 melanoma) was over 100 µM and the TGI (OVCAR-5 ovarian) was over 100 µM. It also gave a TGI (EKVX NSCLC) of over 100 µM, a TGI (NCI-H23 lung) of over 100 µM and a TGI (MDA-MB-231 breast) of over 100 µM. The TGI (SR leukemia) was 66.2 µM, the TGI (SW-620 colon) was over 100 µM and the TGI (HCT-15 colon) was over 100 µM. It also gave a TGI (HS 578T breast) of over 100 µM, a TGI (CAKI-1 renal) of over 100 µM and a TGI (HT29 colon) of over 100 µM. For the same molecule, the TGI (SN12C renal) was over 100 µM, the TGI (CCRF-CEM leukemia) was 75.1 µM and the TGI (SK-MEL-2 melanoma) was over 100 µM. It also gave a TGI (PC-3 prostate) of over 100 µM, a TGI (HL-60(TB) leukemia) of over 100 µM and a TGI (OVCAR-4 ovarian) of over 100 µM. It also gave a TGI (SF-539 CNS) of over 100 µM, a TGI (NCI-H460 lung) of over 100 µM and a TGI (MALME-3M melanoma) of over 100 µM. The TGI (UACC-257 melanoma) was over 100 µM, the TGI (MDA-MB-435) was 50.2 µM and the TGI (UO-31 renal) was over 100 µM. It also gave a TGI (COLO 205 colon) of over 100 µM.
